Target: T1, recombinant human secreted phospholipase A2 (Homo sapiens, UniProt P14555)
T1 sequence (P14555 21-144): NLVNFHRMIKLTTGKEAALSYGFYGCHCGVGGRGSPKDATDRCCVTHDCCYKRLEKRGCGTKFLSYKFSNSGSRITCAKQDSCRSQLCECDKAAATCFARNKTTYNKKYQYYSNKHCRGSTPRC
Assay: chromogenic assay of recombinant human secreted phospholipase A2
Format: biochemical
Details: diheptanoyl thio-PC substrate, pH 7.5, 40° C. for 30 minutes, absorbance at 405 nanometers, triplicate
Source text: The following chromogenic assay procedure was used to identify and evaluate inhibitors of recombinant human secreted phospholipase A2. The assay described herein has been adapted for high volume screening using 96 well microtiter plates. A general description of this assay method is found in the article, “Analysis of Human Synovial Fluid Phospholipase A2 on Short Chain Phosphatidylcholine-Mixed Micelles: Development of a Spectrophotometric Assay Suitable for a Microtiterplate Reader”, by Laure J. Reynolds, Lori L. Hughes, and Edward A Dennis, Analytical Biochemistry, 204, pp. 190–197, 1992 (the disclosure of which is incorporated herein by reference): […]
A measured volume of racemic dipheptanoyl thio PC supplied in chloroform at a concentration of 100 mg/ml is taken to dryness and redissolved in 10 millimolar TRITON X-100™ nonionic detergent aqueous solution. […]
• 1. […] Read absorbance of wells at 405 nanometers with an automatic plate reader.
Tests were done in triplicate. […] Compounds initially found to be active were re-assayed to confirm their activity and, if sufficiently active, IC50 values were determined. […] In all cases, % inhibition measured at 405 nanometers generated by enzyme reactions containing inhibitors relative to the uninhibited control reactions was determined. […]

## NC(=O)C1CCc2c1c1c(OCC(=O)O)cccc1n2Cc1ccccc1 (stereo not shown) [Example 1, (4-Benzyl-1-carbamoyl-1,2,3,4-tetrahydro-cyclopenta[b]indol-8-yloxy)-acetic acid]
  IC50: 0.046 µM
